Measured values reported in US20180008523A1, “ONYCHOMYCOSIS TREATMENT SYSTEM AND METHOD” (DEVICEFARM, INC., priority 2014, published 2018).
Where “and” joins values, the source holds several entries; their conditions need not be identical. Equal values may be shown once.

Tested on: T. rubrum
Assay: Eradication of T. rubrum through a bovine hoof disk (modified Franz-type diffusion cell), colony count after treatment
Assay type: cell-based, Trichophyton rubrum
Conditions: 3 ul PFD on hoof immediately before 45 minutes of plasma treatment; seven days of incubation; 94% for one hoof, 100% (no colonies) for the other two
Text: Eradication of T. rubrum through a bovine hoof using Perfluorode alin (PFD) facilitator and an SMD plasma-generating device.
The in vitro test model uses a bovine, hoof disk, a surrogate nail model established in the literature. It is used along with a modified Franz-type diffusion cell to isolate the fungal contaminated side of the hoof in an enclosed chamber that ensures the treatment path is through the hoof barrier. An equal amount of T. rubrum is pipetted onto each hoof disc consisting of a 100 ul suspension. Each hoof disk is then placed fungus side down into the modified Franz cell and sealed with an O-ring. Each hoof is then plasma treated for 45 minutes where the average thickness of hoof disks is 0.35 mm. Eight hoof disks were treated as: • a. Control that is placed directly into the wash tube without any treatment • b. Two PFD-only hooves had 3 ul PFD pipetted directly onto the hoof opposite side from the fungus. This was allowed to sit for 45 minutes in the hood before placing in the wash tube. • c. Two Plasma treatment only hooves get just a 45 minute plasma is treatment (i.e., no PFD). • d. Three Plasma treatment with PFD hooves had 3 ul PFD pipetted directly onto the hoof opposite side from the fungus immediately before applying plasma treatment.
After treatment, each hoof went through a fungal collection protocol consisting of washing, dilution, plating and incubation. […]

## FC1(F)C(F)(F)C(F)(F)C2(F)C(F)(F)C(F)(F)C(F)(F)C(F)(F)C2(F)C1(F)F (stereo not shown) [PFD, perfluorodecalin]
  colony reduction compared to control: 94% and 100%
